Measurements: PMC7957917 (ACS Medicinal Chemistry Letters, 2021)
“And” between values parts separate entries of the source, which are not always exact repeats. Equal entries are not always repeated. Where two headings read alike, the source gives them in different places.

Experiments:
[1] = tested on: ICR mice; conditions: ip, cited from earlier work; for tolerated dose: four mice per group
[2] = tested on: rats; assay: Tolerability after intravenous treatment of rats; conditions: 1 mg/kg iv, three rats
[3] = tested on: ICR mice; assay: Acute toxicity study in mice; conditions: ip, HCl salts, four mice per group, doses 2.5, 5, 10, 15 mg/kg every 24 h
[4] = tested on: RSV A2 strain; assay: Multicycle replication of RSV in A549 cells; assay type: cell-based, respiratory syncytial virus
[5] = Pharmacokinetic characterization in rats; assay type: in vivo, Sprague Dawley rats; conditions: rat, ip, 2.5 mg/kg
[6] = tested on: DENV-2 (strain 16681); conditions: Huh-7 cells, 48 h postinfection
[7] = tested on: WNV (strain New York 99); conditions: Huh-7 cells, 48 h postinfection
[8] = tested on: SARS-CoV-2; conditions: infected Calu-3 cells; cited from earlier work

CC(C)(C)[C@H](NC(=O)[C@H](CCCNC(=N)N)NC(=O)Cc1ccc(CNC(=N)N)cc1)C(=O)N[C@@H](CCCNC(=N)N)C(=O)NCc1ccc(C(=N)N)cc1 [Inhibitor 1]
number of deaths at next higher dose ([1]; at 5 mg/kg): all mice died and 4 of 4 at 5 mg/kg
tolerated dose [1]: 2.5 mg/kg
tolerability after iv treatment [2]: two of three rats died within 90 min

CC(C)(C)[C@H](NC(=O)[C@H](CCCNC(=N)N)NC(=O)Cc1ccc(CNC(=N)N)cc1)C(=O)N[C@@H](CCCCN)C(=O)NCc1ccc(C(=N)N)cc1 [Inhibitor 2]
number of deaths at next higher dose ([1]; at 10 mg/kg): 4 of 4 at 10 mg/kg
tolerated dose [1]: 5 mg/kg

CC(C)(C)[C@H](NC(=O)[C@H](CCONC(=N)N)NC(=O)Cc1ccc(CN)cc1)C(=O)N[C@@H](CCCCN)C(=O)NCc1ccc(C(=N)N)cc1 [Inhibitor 5]
tolerated dose [3]: 15 mg/kg

CC(C)(C)[C@H](NC(=O)[C@H](CCONC(=N)N)NC(=O)Cc1ccc(CNC(=N)N)cc1)C(=O)N[C@@H](CCONC(=N)N)C(=O)NCc1ccc(C(=N)N)cc1 [Inhibitor 8]
RSV inhibition compared with reference inhibitor 1 (viral titers) ([4]; MOI 1, 0.1-10 µM inhibitor, 16-72 h post infection): strongest antiviral efficacy
inhibition of RSV replication at 10 µM ([4]; initial tests, 10 µM): complete inhibition of virus replication
period with plasma levels >1000 ng/mL (∼1.3 μM) [5]: approximately 3 h
antiviral potency against DENV-2 (virus titers) [6]: significant antiviral potency
antiviral potency against WNV (virus titers) [7]: significant antiviral potency
reduction of SARS-CoV-2 replication [8]: significant reduction of the SARS-CoV-2 replication
tolerability after iv treatment [2]: well-accepted in all three rats without any signs of side effects
tolerated dose [3]: 15 mg/kg
